The values that follow come from publication PMC12397248, “Proanthocyanidins inhibit CYP1B1 through mixed-type kinetics and stable binding in molecular dynamics simulations” (Scientific Reports, 2025).

For data set [1], the target named is T1, Cytochrome P450 1B1 (CYP1B1) (Homo sapiens, UniProt Q16678).
T1 sequence (Q16678 1-543): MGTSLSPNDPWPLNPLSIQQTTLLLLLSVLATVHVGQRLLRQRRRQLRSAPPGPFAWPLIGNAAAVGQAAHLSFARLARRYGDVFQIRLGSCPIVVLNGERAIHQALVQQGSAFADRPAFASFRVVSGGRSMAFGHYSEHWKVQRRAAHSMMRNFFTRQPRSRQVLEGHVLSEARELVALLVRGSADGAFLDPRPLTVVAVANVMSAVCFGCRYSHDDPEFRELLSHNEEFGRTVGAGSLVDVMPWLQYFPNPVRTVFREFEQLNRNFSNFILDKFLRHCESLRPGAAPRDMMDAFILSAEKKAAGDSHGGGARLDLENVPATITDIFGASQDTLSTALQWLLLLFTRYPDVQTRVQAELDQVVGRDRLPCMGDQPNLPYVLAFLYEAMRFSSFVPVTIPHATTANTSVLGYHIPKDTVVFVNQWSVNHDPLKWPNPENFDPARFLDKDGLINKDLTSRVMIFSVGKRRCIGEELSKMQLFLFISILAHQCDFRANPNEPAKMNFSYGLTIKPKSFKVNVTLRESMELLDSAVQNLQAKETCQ
Briefly: recombinant human CYP1B1 ethoxyresorufin O-deethylation fluorescence assay; Michaelis-Menten and Lineweaver-Burk kinetics. Type of data set: biochemical.

Substrate in data set [2]: CCOc1ccc2nc3ccc(=O)cc-3oc2c1
Briefly: Michaelis-Menten kinetics of O-deethylation by recombinant CYP1B1 (Km). To be noted: heme; NADPH. The class given is biochemical, Homo sapiens.

Consider proanthocyanidin [PA], for which, in data set [1], the IC50 was determined as 2530 ± 10 nM.

B1: Cytochrome P450 1B1 (CYP1B1) (Homo sapiens) (protein)
chain: T1 sequence (Q16678 1-543)
As to B1, in data set [2], the Km was determined as 236 ± 74 µM.

Usually IC50 stands for the concentration needed to halve the response being measured. A word on the Km: it is the substrate concentration at which the rate is half of its maximum.
